Results published in ChEMBL document CHEMBL1201861, “Genomics of Drug Sensitity in Cancer screening data, Wellcome Trust Sanger Institute”.

Assays:
Assay in all cases: cells
[1] = system: CP66-MEL; type: functional, cell-based, Homo sapiens; conditions: Homo sapiens, CP66-MEL;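 further: growth inhibition of CP66-MEL cells determined in a cell viability assay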
Description: SANGER: Inhibition of human CP66-MEL cell growth in a cell viability assay.

[2] = system: D-336MG; type: functional, cell-based, Homo sapiens; conditions: Homo sapiens, D-336MG
Description: SANGER: Inhibition of human D-336MG cell growth in a cell viability assay.

[3] = system: DU-145; type: functional, cell-based, Homo sapiens; conditions: Homo sapiens, DU-145
Description: SANGER: Inhibition of human DU-145 cell growth in a cell viability assay.

[4] = system: Detroit 562; type: functional, cell-based, Homo sapiens; conditions: Homo sapiens, Detroit 562;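 further: growth inhibition of human Detroit 562 cells, read out by a cell viability assay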
Description: SANGER: Inhibition of human Detroit562 cell growth in a cell viability assay.

[5] = system: EFO-27; type: functional, cell-based, Homo sapiens; conditions: Homo sapiens, EFO-27;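 further: growth inhibition of EFO-27 cells, read out with a cell viability assay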
Description: SANGER: Inhibition of human EFO-27 cell growth in a cell viability assay.

[6] = system: ETK-1; type: functional, cell-based, Homo sapiens; conditions: Homo sapiens, ETK-1;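 further: growth inhibition of human ETK-1 cells, read out with a cell viability assay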
Description: SANGER: Inhibition of human ETK-1 cell growth in a cell viability assay.

[7] = system: EW-3; type: functional, cell-based; conditions: Homo sapiens;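 further: cell viability assay read-out, IC50 reflects inhibition of growth of the EW-3 cells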
Description: SANGER: Inhibition of human EW-3 cell growth in a cell viability assay.

[8] = system: GCIY; type: functional, cell-based, Homo sapiens; conditions: Homo sapiens, GCIY;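 further: growth inhibition of the human GCIY cell line, read out by a cell viability assay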
Description: SANGER: Inhibition of human GCIY cell growth in a cell viability assay.

[9] = system: HCC1395; type: functional, cell-based, Homo sapiens; conditions: Homo sapiens, HCC1395;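 further: growth inhibition of HCC1395 cells, read out by a cell viability assay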
Description: SANGER: Inhibition of human HCC1395 cell growth in a cell viability assay.

[10] = system: HCC2157; type: functional, cell-based; conditions: Homo sapiens;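 further: growth inhibition of the cancer cell line, read out as cell viability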
Description: SANGER: Inhibition of human HCC2157 cell growth in a cell viability assay.

[11] = system: HSC-3; type: functional, cell-based, Homo sapiens; conditions: Homo sapiens, HSC-3
Description: SANGER: Inhibition of human HSC-3 cell growth in a cell viability assay.

[12] = system: HT-1376; type: functional, cell-based, Homo sapiens; conditions: Homo sapiens, HT-1376
Description: SANGER: Inhibition of human HT-1376 cell growth in a cell viability assay.

[13] = system: HT-3; type: functional, cell-based, Homo sapiens; conditions: Homo sapiens, HT-3;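 further: growth inhibition measured with a cell viability readout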
Description: SANGER: Inhibition of human HT-3 cell growth in a cell viability assay.

[14] = system: HTC-C3; type: functional, cell-based, Homo sapiens; conditions: Homo sapiens, HTC-C3;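 further: inhibition of cell growth, read out with a cell viability assay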
Description: SANGER: Inhibition of human HTC-C3 cell growth in a cell viability assay.

[15] = system: Hs-578T; type: functional, cell-based, Homo sapiens; conditions: Homo sapiens, Hs-578T
Description: SANGER: Inhibition of human Hs-578-T cell growth in a cell viability assay.

[16] = system: K562; type: functional, cell-based; conditions: Homo sapiens
Description: SANGER: Inhibition of human K-562 cell growth in a cell viability assay.

[17] = system: LB831-BLC; type: functional, cell-based, Homo sapiens; conditions: Homo sapiens, LB831-BLC;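 further: growth inhibition of LB831-BLC cells, read out with a cell viability assay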
Description: SANGER: Inhibition of human LB831-BLC cell growth in a cell viability assay.

[18] = system: LU-139; type: functional, cell-based; conditions: Homo sapiens
Description: SANGER: Inhibition of human LU-139 cell growth in a cell viability assay.

[19] = system: MDA-MB-157; type: functional, cell-based, Homo sapiens; conditions: Homo sapiens, MDA-MB-157
Description: SANGER: Inhibition of human MDA-MB-157 cell growth in a cell viability assay.

[20] = system: MDA-MB-231; type: functional, cell-based, Homo sapiens; conditions: Homo sapiens, MDA-MB-231
Description: SANGER: Inhibition of human MDA-MB-231 cell growth in a cell viability assay.

[21] = system: MDA-MB-453; type: functional, cell-based, Homo sapiens; conditions: Homo sapiens, MDA-MB-453
Description: SANGER: Inhibition of human MDA-MB-453 cell growth in a cell viability assay.

[22] = system: MKN-1; type: functional, cell-based, Homo sapiens; conditions: Homo sapiens, MKN-1;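 further: growth inhibition of human MKN1 cells, read out by a cell viability measurement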
Description: SANGER: Inhibition of human MKN1 cell growth in a cell viability assay.

[23] = system: MV4-11; type: functional, cell-based, MV-4-11; conditions: Homo sapiens;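 further: cell viability readout measuring growth inhibition of human MV-4-11 cells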
Description: SANGER: Inhibition of human MV-4-11 cell growth in a cell viability assay.

[24] = system: NB69; type: functional, cell-based, Homo sapiens; conditions: Homo sapiens, NB69;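 further: growth inhibition of NB69 cells, determined by a cell viability assay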
Description: SANGER: Inhibition of human NB69 cell growth in a cell viability assay.

[25] = system: NCI-H1581; type: functional, cell-based, Homo sapiens; conditions: Homo sapiens, NCI-H1581;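 further: cell growth inhibition read out by a viability assay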
Description: SANGER: Inhibition of human NCI-H1581 cell growth in a cell viability assay.

[26] = system: NCI-H1838; type: functional, cell-based, Homo sapiens; conditions: Homo sapiens, NCI-H1838;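 further: growth inhibition of NCI-H1838 cells, determined with a cell viability readout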
Description: SANGER: Inhibition of human NCI-H1838 cell growth in a cell viability assay.

[27] = system: NCI-H441; type: functional, cell-based; conditions: Homo sapiens;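 further: growth inhibition of NCI-H441 cells, read out with a cell viability assay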
Description: SANGER: Inhibition of human NCI-H441 cell growth in a cell viability assay.

[28] = system: NCI-H596; type: functional, cell-based, Homo sapiens; conditions: Homo sapiens, NCI-H596;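 further: growth inhibition of NCI-H596 cells, read out with a cell viability assay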
Description: SANGER: Inhibition of human NCI-H596 cell growth in a cell viability assay.

[29] = system: NEC8; type: functional, cell-based, Homo sapiens; conditions: Homo sapiens, NEC8;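 further: growth inhibition of human NEC8 cells, read out by a cell viability assay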
Description: SANGER: Inhibition of human NEC8 cell growth in a cell viability assay.

[30] = system: NTERA-2-cl-D1; type: functional, cell-based, Homo sapiens; conditions: Homo sapiens, NTERA-2-cl-D1;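 further: inhibition of cell growth, measured with a cell viability assay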
Description: SANGER: Inhibition of human NTERA-S-cl-D1 cell growth in a cell viability assay.

[31] = system: OE19; type: functional, cell-based, Homo sapiens; conditions: Homo sapiens, OE19;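 further: growth inhibition of OE19 cells, measured through a cell viability read-out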
Description: SANGER: Inhibition of human OE19 cell growth in a cell viability assay.

[32] = system: PC-3; type: functional, cell-based, Homo sapiens; conditions: Homo sapiens, PC-3;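 further: cell viability assay measuring growth inhibition of PC-3 cells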
Description: SANGER: Inhibition of human PC-3 cell growth in a cell viability assay.

[33] = system: PSN1; type: functional, cell-based, Homo sapiens; conditions: Homo sapiens, PSN1;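 further: suppression of growth of human PSN1 cells, read out by a cell viability assay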
Description: SANGER: Inhibition of human PSN1 cell growth in a cell viability assay.

[34] = system: SBC-1; type: functional, cell-based; conditions: Homo sapiens;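 further: cell viability assay measuring growth inhibition of the SBC-1 cell line, IC50 being the concentration that halves growth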
Description: SANGER: Inhibition of human SBC-1 cell growth in a cell viability assay.

[35] = system: SCC-15; type: functional, cell-based, Homo sapiens; conditions: Homo sapiens, SCC-15;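 further: growth inhibition of SCC-15 cells, read out with a cell viability assay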
Description: SANGER: Inhibition of human SCC-15 cell growth in a cell viability assay.

[36] = system: SCC-9; type: functional, cell-based, Homo sapiens; conditions: Homo sapiens, SCC-9;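 further: Read-out is a cell viability assay, with values giving inhibition of cell growth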
Description: SANGER: Inhibition of human SCC-9 cell growth in a cell viability assay.

[37] = system: SK-OV-3; type: functional, cell-based, Homo sapiens; conditions: Homo sapiens, SK-OV-3;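 further: growth inhibition of SK-OV-3 human cells, read out with a cell viability assay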
Description: SANGER: Inhibition of human SK-OV-3 cell growth in a cell viability assay.

[38] = system: SW1463; type: functional, cell-based, Homo sapiens; conditions: Homo sapiens, SW1463;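 further: growth inhibition of SW1463 cells, determined with a cell viability assay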
Description: SANGER: Inhibition of human SW1463 cell growth in a cell viability assay.

[39] = system: SW626; type: functional, cell-based, Homo sapiens; conditions: Homo sapiens, SW626;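 further: growth inhibition of SW626 cells, measured with a cell viability assay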
Description: SANGER: Inhibition of human SW626 cell growth in a cell viability assay.

[40] = system: T98G; type: functional, cell-based, Homo sapiens; conditions: Homo sapiens, T98G;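 further: growth inhibition of T98G cells, read out by a cell viability assay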
Description: SANGER: Inhibition of human T98G cell growth in a cell viability assay.

[41] = system: A253 cell line; type: functional, cell-based, Homo sapiens; conditions: Homo sapiens, A253;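 further: growth inhibition of A253 cells, read out with a cell viability assay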
Description: SANGER: Inhibition of human A253 cell growth in a cell viability assay.

[42] = system: A3-KAW; type: functional, cell-based; conditions: Homo sapiens;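 further: growth inhibition of human A3-KAW cells, read out with a cell viability assay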
Description: SANGER: Inhibition of human A3-KAW cell growth in a cell viability assay.

[43] = system: ALL-PO; type: functional, cell-based; conditions: Homo sapiens;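 further: growth inhibition of ALL-PO cells, read out by a cell viability assay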
Description: SANGER: Inhibition of human ALL-PO cell growth in a cell viability assay.

[44] = system: BE-13; type: functional, cell-based; conditions: Homo sapiens;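 further: growth inhibition of human BE-13 cells, measured with a cell viability assay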
Description: SANGER: Inhibition of human BE-13 cell growth in a cell viability assay.

[45] = system: BFTC-905; type: functional, cell-based, Homo sapiens; conditions: Homo sapiens, BFTC-905
Description: SANGER: Inhibition of human BFTC-905 cell growth in a cell viability assay.

[46] = system: BT-20; type: functional, cell-based, Homo sapiens; conditions: Homo sapiens, BT-20;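 further: cell viability assay measuring suppression of growth in human BT-20 cells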
Description: SANGER: Inhibition of human BT-20 cell growth in a cell viability assay.

[47] = system: C-33-A; type: functional, cell-based, Homo sapiens; conditions: Homo sapiens, C-33-A;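 further: cell viability assay measuring growth inhibition of C-33-A cells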
Description: SANGER: Inhibition of human C-33-A cell growth in a cell viability assay.

[48] = system: CAL-72; type: functional, cell-based, Homo sapiens; conditions: Homo sapiens, CAL-72;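 further: cell viability assay measuring inhibition of proliferation in the CAL-72 cell line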
Description: SANGER: Inhibition of human CAL-72 cell growth in a cell viability assay.

[49] = system: CAL-85-1; type: functional, cell-based; conditions: Homo sapiens;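 further: growth inhibition of human CAL-85-1 cells, read out with a cell viability assay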
Description: SANGER: Inhibition of human CAL-85-1 cell growth in a cell viability assay.

[50] = system: U-251; type: functional, cell-based, Homo sapiens; conditions: Homo sapiens, U-251;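 further: growth inhibition of human U-251 cells, read out through a cell viability assay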
Description: SANGER: Inhibition of human U251 cell growth in a cell viability assay.

[51] = system: UACC-62; type: functional, cell-based, Homo sapiens; conditions: Homo sapiens, UACC-62;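 further: growth inhibition of human UACC-62 cells, read out by a cell viability assay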
Description: SANGER: Inhibition of human UACC-62 cell growth in a cell viability assay.

Compound: CCOc1nc(NC(=O)Cc2cc(OC)ccc2OC)cc(N)c1C#N
- IC50 [1]: > 10 µM
- IC50 [2]: > 10 µM
- IC50 [3]: > 10 µM
- IC50 [4]: > 10 µM
- IC50 [5]: > 10 µM
- IC50 [6]: > 10 µM
- IC50 [7]: > 10 µM
- IC50 [8]: > 10 µM
- IC50 [9]: > 10 µM
- IC50 [10]: > 10 µM
- IC50 [11]: > 10 µM
- IC50 [12]: > 10 µM
- IC50 [13]: > 10 µM
- IC50 [14]: > 10 µM
- IC50 [15]: > 10 µM
- IC50 [16]: > 10 µM
- IC50 [17]: > 10 µM
- IC50 [18]: > 10 µM
- IC50 [19]: > 10 µM
- IC50 [20]: > 10 µM
- IC50 [21]: > 10 µM
- IC50 [22]: > 10 µM
- IC50 [23]: > 10 µM
- IC50 [24]: > 10 µM
- IC50 [25]: > 10 µM
- IC50 [26]: > 10 µM
- IC50 [27]: > 10 µM
- IC50 [28]: > 10 µM
- IC50 [29]: > 10 µM
- IC50 [30]: > 10 µM
- IC50 [31]: > 10 µM
- IC50 [32]: > 10 µM
- IC50 [33]: > 10 µM
- IC50 [34]: > 10 µM
- IC50 [35]: > 10 µM
- IC50 [36]: > 10 µM
- IC50 [37]: > 10 µM
- IC50 [38]: > 10 µM
- IC50 [39]: > 10 µM
- IC50 [40]: > 10 µM
- IC50 [41]: > 10 µM
- IC50 [42]: > 10 µM
- IC50 [43]: > 10 µM
- IC50 [44]: > 10 µM
- IC50 [45]: > 10 µM
- IC50 [46]: > 10 µM
- IC50 [47]: > 10 µM
- IC50 [48]: > 10 µM
- IC50 [49]: > 10 µM
- IC50 [50]: > 10 µM
- IC50 [51]: > 10 µM

Compound: CC(=O)O[C@@H]1[C@@H](OC(C)=O)[C@@H](O)[C@H](Oc2c(-c3ccc(O)cc3)oc3cc(O)cc(O)c3c2=O)O[C@H]1C
- IC50 [1]: > 10 µM
- IC50 [2]: > 10 µM
- IC50 [3]: > 10 µM
- IC50 [4]: > 10 µM
- IC50 [5]: > 10 µM
- IC50 [6]: > 10 µM
- IC50 [7]: > 10 µM
- IC50 [8]: > 10 µM
- IC50 [9]: > 10 µM
- IC50 [10]: 5.65 µM
- IC50 [11]: > 10 µM
- IC50 [12]: > 10 µM
- IC50 [13]: > 10 µM
- IC50 [14]: > 10 µM
- IC50 [15]: > 10 µM
- IC50 [16]: > 10 µM
- IC50 [17]: > 10 µM
- IC50 [18]: > 10 µM
- IC50 [19]: > 10 µM
- IC50 [20]: > 10 µM
- IC50 [21]: > 10 µM
- IC50 [22]: > 10 µM
- IC50 [23]: > 10 µM
- IC50 [24]: > 10 µM
- IC50 [25]: > 10 µM
- IC50 [26]: > 10 µM
- IC50 [27]: > 10 µM
- IC50 [28]: > 10 µM
- IC50 [29]: > 10 µM
- IC50 [30]: > 10 µM
- IC50 [31]: > 10 µM
- IC50 [32]: > 10 µM
- IC50 [33]: > 10 µM
- IC50 [34]: > 10 µM
- IC50 [35]: > 10 µM
- IC50 [36]: > 10 µM
- IC50 [37]: > 10 µM
- IC50 [38]: > 10 µM
- IC50 [39]: > 10 µM
- IC50 [40]: > 10 µM
- IC50 [41]: > 10 µM
- IC50 [42]: > 10 µM
- IC50 [43]: > 10 µM
- IC50 [44]: > 10 µM
- IC50 [45]: > 10 µM
- IC50 [46]: > 10 µM
- IC50 [47]: > 10 µM
- IC50 [48]: 3.89 µM
- IC50 [49]: > 10 µM
- IC50 [50]: > 10 µM
- IC50 [51]: > 10 µM
